Data published in PubChem BioAssay AID256 (DTP/NCI, 2004).
Several values for one entry are separate records, joined by “and”; a condition that tells them apart may be missing. Equal entries are not always repeated. Inconclusive results and toxic doses are left out. The calls were made as follows: active = survival T/C of 150% or more; inactive = T/C below 125% in these data.

System: CD2F1 mice, L1210 leukemia ip, survival T/C
Assay: NCI In Vivo Anticancer Drug Screen. Data for tumor model L1210 Leukemia (intraperitoneal) in CD2F1 (CDF1) mice
Details: higher = longer survival
How it was run: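 Transplantable tumor in mice; compound-treated vs vehicle-treated groups. Read-out = treated/control ratio of the measured endpoint.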

[1] = endpoint: mean survival time, dose: 6.25 mg/kg/injection, schedule: Q01DX009 (ip), vehicle: Klucel (hydroxypropylcellulose) (HPC)
[2] = endpoint: mean survival time, dose: 12.5 mg/kg/injection, schedule: Q01DX009 (ip), vehicle: Klucel (hydroxypropylcellulose) (HPC)
[3] = endpoint: mean survival time, dose: 12.5 mg/kg/injection, schedule: Q01DX009 (ip), vehicle: saline with Tween-80
[4] = endpoint: mean survival time, dose: 25.0 mg/kg/injection, schedule: Q01DX009 (ip), vehicle: Klucel (hydroxypropylcellulose) (HPC)
[5] = endpoint: mean survival time, dose: 25.0 mg/kg/injection, schedule: Q01DX009 (ip), vehicle: saline with Tween-80
[6] = endpoint: mean survival time, dose: 50.0 mg/kg/injection, schedule: Q01DX009 (ip), vehicle: Klucel (hydroxypropylcellulose) (HPC)
[7] = endpoint: mean survival time, dose: 50.0 mg/kg/injection, schedule: Q01DX009 (ip), vehicle: saline with Tween-80
[8] = endpoint: mean survival time, dose: 100.0 mg/kg/injection, schedule: Q01DX009 (ip), vehicle: Klucel (hydroxypropylcellulose) (HPC)
[9] = endpoint: mean survival time, dose: 100.0 mg/kg/injection, schedule: Q01DX009 (ip), vehicle: saline with Tween-80
[10] = endpoint: mean survival time, dose: 200.0 mg/kg/injection, schedule: Q01DX009 (ip), vehicle: saline with Tween-80
[11] = endpoint: mean survival time, dose: 400.0 mg/kg/injection, schedule: Q01DX009 (ip), vehicle: saline with Tween-80
[12] = endpoint: mean survival time, dose: 100.0 mg/kg/injection, schedule: Q04DX002 (ip), vehicle: saline with Tween-80
[13] = endpoint: mean survival time, dose: 200.0 mg/kg/injection, schedule: Q04DX002 (ip), vehicle: saline with Tween-80
[14] = endpoint: mean survival time, dose: 400.0 mg/kg/injection, schedule: Q04DX002 (ip), vehicle: saline with Tween-80
[15] = endpoint: mean survival time, dose: 100.0 mg/kg/injection, schedule: Q04DX003 (ip), vehicle: saline with Tween-80
[16] = endpoint: mean survival time, dose: 200.0 mg/kg/injection, schedule: Q04DX003 (ip), vehicle: saline with Tween-80
[17] = endpoint: mean survival time, dose: 400.0 mg/kg/injection, schedule: Q04DX003 (ip), vehicle: saline with Tween-80

Measured: T/C

Cc1nn(CCO)c(C)c1N=[N+]([O-])c1c(C)nn(CCO)c1C
inactive: endpoint: mean survival time, dose: 3.12 mg/kg/injection, schedule: Q01DX009 (ip), vehicle: Klucel (hydroxypropylcellulose) (HPC) 102 % of control | endpoint: mean survival time, dose: 3.12 mg/kg/injection, schedule: Q01DX009 (ip), vehicle: saline with Tween-80 98 % of control | [1] 95 % of control | endpoint: mean survival time, dose: 6.25 mg/kg/injection, schedule: Q01DX009 (ip), vehicle: saline with Tween-80 103 % of control | [2] 96 % of control | [3] 104 % of control | [4] 95 % of control | [5] 106 % of control | [6] 101 % of control | [7] 103 % of control | endpoint: mean survival time, dose: 50.0 mg/kg/injection, schedule: Q04DX003 (ip), vehicle: Klucel (hydroxypropylcellulose) (HPC) 113 % of control | [8] 95 % of control | endpoint: mean survival time, dose: 100.0 mg/kg/injection, schedule: Q04DX003 (ip), vehicle: Klucel (hydroxypropylcellulose) (HPC) 117 % of control

CC1OC(OC2C(OC3CCC4(C)C(CCC5(C)C4CC=C4C6CC(C)(C)CCC6(CO)C(O)CC45C)C3(C)C)OC(CO)C(OC3OC(COC4OC(CO)C(O)C(O)C4O)C(O)C(O)C3O)C2O)C(O)C(O)C1O (stereo not drawn)
inactive: endpoint: mean survival time, dose: 50.0 mg/kg/injection, schedule: Q01DX001 (sc), vehicle: steriod suspending solution 103 % of control

COc1cc(OC)c(NC(=O)NC(C)C)cc1Cl
inactive: [9] 100 % of control | [10] 96 % of control | [11] 100 % of control

C=C(NC(=O)CN)C(=O)O
inactive: [12] 100 % of control | [13] 95 % of control | [14] 95 % of control

S=C(N/N=C/c1ccccn1)Nc1ccccn1
inactive: [12] 103 % of control | [13] 114 % of control | [14] 91 % of control

O=C([S-])N1CCCCC1.O=C([S-])N1CCCCC1.[Ni+2]
inactive: [3] 96 % of control | endpoint: mean survival time, dose: 12.5 mg/kg/injection, schedule: Q04DX003 (ip), vehicle: saline sonified 100 % of control | [5] 93 % of control | endpoint: mean survival time, dose: 25.0 mg/kg/injection, schedule: Q04DX003 (ip), vehicle: saline sonified 113 % of control | [7] 106 % of control | endpoint: mean survival time, dose: 50.0 mg/kg/injection, schedule: Q04DX003 (ip), vehicle: saline sonified 92 % of control

CNC/C(C)=C/Cl
inactive: endpoint: mean survival time, dose: 50.0 mg/kg/injection, schedule: Q01DX009 (ip), vehicle: acetone 96 % of control | endpoint: mean survival time, dose: 100.0 mg/kg/injection, schedule: Q01DX009 (ip), vehicle: acetone 90 % of control

[Cu+2].[NH-]C1(C(=O)O)CCCC1.[NH-]C1(C(=O)O)CCCC1
inactive: endpoint: mean survival time, dose: 2.5 mg/kg/injection, schedule: Q01DX009 (ip), vehicle: saline with Tween-80 89 % of control | endpoint: mean survival time, dose: 5.0 mg/kg/injection, schedule: Q01DX009 (ip), vehicle: saline with Tween-80 100 % of control | endpoint: mean survival time, dose: 5.0 mg/kg/injection, schedule: Q04DX003 (ip), vehicle: saline 91 % of control | endpoint: mean survival time, dose: 10.0 mg/kg/injection, schedule: Q01DX009 (ip), vehicle: saline with Tween-80 94 % of control

COc1cc(C)c2c(c1C=O)Oc1c(c(C)c(O)c3c1C(O)OC3=O)OC2=O (stereo not drawn)
inactive: endpoint: mean survival time, dose: 3.12 mg/kg/injection, schedule: Q01DX009 (ip), vehicle: saline 94 % of control | endpoint: mean survival time, dose: 6.25 mg/kg/injection, schedule: Q01DX009 (ip), vehicle: saline 92 % of control | endpoint: mean survival time, dose: 12.5 mg/kg/injection, schedule: Q01DX009 (ip), vehicle: saline 100 % of control | endpoint: mean survival time, dose: 25.0 mg/kg/injection, schedule: Q01DX009 (ip), vehicle: saline 92 % of control | endpoint: mean survival time, dose: 50.0 mg/kg/injection, schedule: Q01DX009 (ip), vehicle: saline 97 % of control

COc1cc(C(=O)c2cc3c(cc2C)OCO3)cc(OC)c1OC
inactive: [1] 102 % of control and 105 % of control | [2] 100 % of control and 102 % of control | [4] 105 % of control and 107 % of control | [6] 113 % of control and 98 % of control | [8] 105 % of control | endpoint: mean survival time, dose: 200.0 mg/kg/injection, schedule: Q01DX009 (ip), vehicle: Klucel (hydroxypropylcellulose) (HPC) 114 % of control

O=c1[nH][nH]c2ccccc12
inactive: [15] 98 % of control | [16] 94 % of control | [17] 98 % of control

CC(C)CSCC1OC(n2cnc3c(N)nccc32)C(O)C1O (stereo not drawn)
inactive: endpoint: mean survival time, dose: 3.13 mg/kg/injection, schedule: Q03HX024 (ip), vehicle: distilled water + Tween-80 100 % of control | endpoint: mean survival time, dose: 6.25 mg/kg/injection, schedule: Q03HX024 (ip), vehicle: distilled water + Tween-80 105 % of control | endpoint: mean survival time, dose: 12.5 mg/kg/injection, schedule: Q01DX005 (ip), vehicle: distilled water + Tween-80 107 % of control | endpoint: mean survival time, dose: 12.5 mg/kg/injection, schedule: Q03HX024 (ip), vehicle: distilled water + Tween-80 96 % of control | endpoint: mean survival time, dose: 25.0 mg/kg/injection, schedule: Q01DX005 (ip), vehicle: distilled water + Tween-80 115 % of control | endpoint: mean survival time, dose: 25.0 mg/kg/injection, schedule: Q03HX024 (ip), vehicle: distilled water + Tween-80 100 % of control | endpoint: mean survival time, dose: 50.0 mg/kg/injection, schedule: Q01DX005 (ip), vehicle: distilled water + Tween-80 100 % of control | endpoint: mean survival time, dose: 50.0 mg/kg/injection, schedule: Q03HX024 (ip), vehicle: distilled water + Tween-80 96 % of control | endpoint: mean survival time, dose: 100.0 mg/kg/injection, schedule: Q01DX005 (ip), vehicle: distilled water + Tween-80 88 % of control | endpoint: mean survival time, dose: 100.0 mg/kg/injection, schedule: Q03HX024 (ip), vehicle: distilled water + Tween-80 86 % of control

CC(C)CCCC(C)C1CCC2C3CCC45CC4C(=O)CCC5(C)C3CCC12C (stereo not drawn)
inactive: endpoint: mean survival time, dose: 100.0 mg/kg/injection, schedule: Q04DX003 (ip), vehicle: acetone 102 % of control | [15] 91 % of control | endpoint: mean survival time, dose: 200.0 mg/kg/injection, schedule: Q04DX003 (ip), vehicle: acetone 93 % of control | [16] 93 % of control | endpoint: mean survival time, dose: 400.0 mg/kg/injection, schedule: Q04DX003 (ip), vehicle: acetone 89 % of control | [17] 95 % of control

Cc1c[nH]c(=O)c[n+]1[O-]
inactive: [9] 100 % of control | [10] 100 % of control | [11] 97 % of control

c1ccc(/C(N=NC(c2ccccc2)(c2ccccc2)c2ccccc2)=C(/N=NC(c2ccccc2)(c2ccccc2)c2ccccc2)c2ccccc2)cc1
inactive: endpoint: mean survival time, dose: 100.0 mg/kg/injection, schedule: Q01DX001 (ip), vehicle: saline with Tween-80 91 % of control | endpoint: mean survival time, dose: 200.0 mg/kg/injection, schedule: Q01DX001 (ip), vehicle: saline with Tween-80 101 % of control | endpoint: mean survival time, dose: 400.0 mg/kg/injection, schedule: Q01DX001 (ip), vehicle: saline with Tween-80 89 % of control

CC1CCOC(C)(C)O1 (stereo not drawn)
inactive: endpoint: mean survival time, dose: 100.0 mg/kg/injection, schedule: Q04DX002 (ip), vehicle: saline 100 % of control | endpoint: mean survival time, dose: 200.0 mg/kg/injection, schedule: Q04DX002 (ip), vehicle: saline 86 % of control | endpoint: mean survival time, dose: 400.0 mg/kg/injection, schedule: Q04DX002 (ip), vehicle: saline 104 % of control

CC(C)(C)c1ccc(C(=O)N2CCOC23CCCCC3)cc1
inactive: endpoint: median survival time, dose: 50.0 mg/kg/injection, schedule: Q01DX005 (ip), vehicle: saline with Tween-80 101 % of control and 104 % of control | endpoint: median survival time, dose: 100.0 mg/kg/injection, schedule: Q01DX005 (ip), vehicle: saline with Tween-80 96 % of control and 104 % of control | endpoint: median survival time, dose: 200.0 mg/kg/injection, schedule: Q01DX005 (ip), vehicle: saline with Tween-80 98 % of control and 101 % of control | endpoint: median survival time, dose: 400.0 mg/kg/injection, schedule: Q01DX005 (ip), vehicle: saline with Tween-80 100 % of control | endpoint: median survival time, dose: 800.0 mg/kg/injection, schedule: Q01DX005 (ip), vehicle: saline with Tween-80 96 % of control and 101 % of control

CCOC(=O)/C(C#N)=C(\C)c1cccc(C)c1
inactive: [5] 102 % of control | [7] 98 % of control | [9] 103 % of control | [15] 105 % of control

Cc1ccccc1CC#N
inactive: endpoint: mean survival time, dose: 12.5 mg/kg/injection, schedule: Q04DX002 (ip), vehicle: saline 96 % of control | endpoint: mean survival time, dose: 25.0 mg/kg/injection, schedule: Q04DX002 (ip), vehicle: saline 99 % of control

CCOC(=O)Nc1ccc(F)cc1C
inactive: [15] 97 % of control | [16] 97 % of control | [17] 95 % of control
